Experimental findings from BindingDB's records for doi:10.1021/jm701164t (Irbm-Mrl, 2008) are described below.

For the test, the target named is Gag-Pol polyprotein (Human immunodeficiency virus type 1 group M subtype B (isolate HXB2), UniProt P04585). As to the kind of experiment: Microtiter Plate Assay for Strand Transfer. The following applies: pH 7.8; 37 °C. How it is done: The microtiter plate assay for stand transfer was performed with an immobilized donor substrate and a target substrate biotinylated at the 3-prime end of each DNA strand. Integrase was first assembled with immobilized LTR oligonucleotides for 30 min. Inhibitors were added after assembly and washings. For the strand transfer reaction, it was initiated with the addition of the biotinylated target substrate. Strand transfer reaction mixtures were incubated for additional 30 min, and the strand transfer products were detected by using alkaline phosphatase-conjugated avidin (Boehringer Mannheim, Indianapolis, Ind.).

`CC(c1nc(C(=O)NCc2ccc(F)cc2)c(O)c(=O)[nH]1)N(C)C` (stereo unspecified) [JMC496646 Compound 11]: half-maximal inhibition (IC50) was put at 0.1 µM.
